Among the data in PubChem BioAssay AID256 (DTP/NCI, 2004) are T/C values, retold here.

The subject of the test is CD2F1 mice, L1210 leukemia ip, survival T/C. Kind of test: NCI In Vivo Anticancer Drug Screen. Data for tumor model L1210 Leukemia (intraperitoneal) in CD2F1 (CDF1) mice. The settings on record: higher = longer survival. The gist of the method:
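Each value reflects a quotient of treated over vehicle control outcomes in mice with a transplanted tumor.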

Setting [1] is: endpoint: mean survival time, dose: 100.0 mg/kg/injection, schedule: Q04DX003 (ip), vehicle: saline with Tween-80.
Setting [2] is: endpoint: mean survival time, dose: 100.0 mg/kg/injection, schedule: Q01DX009 (ip), vehicle: saline with Tween-80.
Setting [3] is: endpoint: mean survival time, dose: 200.0 mg/kg/injection, schedule: Q01DX009 (ip), vehicle: saline with Tween-80.
[4] abbreviates: endpoint: mean survival time, dose: 25.0 mg/kg/injection, schedule: Q01DX009 (ip), vehicle: saline with Tween-80.
The mark [5] stands for this setting: endpoint: mean survival time, dose: 50.0 mg/kg/injection, schedule: Q01DX009 (ip), vehicle: saline with Tween-80.
[6] abbreviates: endpoint: mean survival time, dose: 100.0 mg/kg/injection, schedule: Q01DX001 (ip), vehicle: saline with Tween-80.
[7] abbreviates: endpoint: mean survival time, dose: 25.0 mg/kg/injection, schedule: Q04DX003 (ip), vehicle: saline with Tween-80.
[8] abbreviates: endpoint: mean survival time, dose: 100.0 mg/kg/injection, schedule: Q01DX001 (ip), vehicle: saline.
The mark [9] stands for this setting: endpoint: mean survival time, dose: 200.0 mg/kg/injection, schedule: Q01DX001 (ip), vehicle: saline.
Where [10] appears, read: endpoint: mean survival time, dose: 400.0 mg/kg/injection, schedule: Q01DX001 (ip), vehicle: saline.

Molecules are shown by their SMILES. Several values for one entry are separate records, joined by “and”; a condition that tells them apart may be missing. Equal entries are not always repeated. Toxic doses and inconclusive results are not listed.

With `CC(=O)CC(=O)c1ccccc1.CC(=O)CC(=O)c1ccccc1.CC(=O)CC(=O)c1ccccc1.[Tb]`, the T/C by setting is: under setting [1], 93 % of control; (endpoint: mean survival time, dose: 200.0 mg/kg/injection, schedule: Q04DX003 (ip), vehicle: saline with Tween-80) 91 % of control; (endpoint: mean survival time, dose: 400.0 mg/kg/injection, schedule: Q04DX003 (ip), vehicle: saline with Tween-80) 88 % of control.

For `NC(=O)OCC#CCN1CCCC1`, the T/C is 102 % of control (endpoint: mean survival time, dose: 5.0 mg/kg/injection, schedule: Q01DX009 (ip), vehicle: saline with Tween-80); 103 % of control (endpoint: mean survival time, dose: 10.0 mg/kg/injection, schedule: Q01DX009 (ip), vehicle: saline with Tween-80); 100 % of control (endpoint: mean survival time, dose: 20.0 mg/kg/injection, schedule: Q01DX009 (ip), vehicle: saline with Tween-80).

Regarding `CC(C)(CC(=O)Nc1ccccc1)C(=O)O`, the T/C is 98 % of control and 100 % of control under setting [2]; 96 % of control and 100 % of control under setting [3]; 96 % of control and 102 % of control (endpoint: mean survival time, dose: 400.0 mg/kg/injection, schedule: Q01DX009 (ip), vehicle: saline with Tween-80).

Turning to `CNc1ncnc2[nH]cc([N+](=O)[O-])c12`, the T/C is, setting by setting: (endpoint: mean survival time, dose: 75.0 mg/kg/injection, schedule: Q01DX001 (ip), vehicle: saline) 96 % of control; (endpoint: mean survival time, dose: 150.0 mg/kg/injection, schedule: Q01DX001 (ip), vehicle: saline) 106 % of control; (endpoint: mean survival time, dose: 300.0 mg/kg/injection, schedule: Q01DX001 (ip), vehicle: saline) 106 % of control.

For `CCCCC(c1ccccc1)P(=O)(OCC)OCC` (configuration not stated), the T/C is 97 % of control under setting [4]; 103 % of control under setting [5]; 102 % of control and 111 % of control under setting [2].

As to `CC1CC(C)(C)OC(C(C)C)O1` (configuration not stated), the T/C was 96 % of control (endpoint: mean survival time, dose: 100.0 mg/kg/injection, schedule: Q04DX002 (ip), vehicle: saline with Tween-80); 96 % of control (endpoint: mean survival time, dose: 200.0 mg/kg/injection, schedule: Q04DX002 (ip), vehicle: saline with Tween-80); 96 % of control (endpoint: mean survival time, dose: 400.0 mg/kg/injection, schedule: Q04DX002 (ip), vehicle: saline with Tween-80).

In the case of `CC1=CC2C(O)(CC(CO)=CC3C4C(C)(C)C4(OC(=O)c4ccccc4)C(OC(=O)c4ccccc4)C(C)C32O)C1=O` (configuration not stated), the T/C by setting is: (endpoint: median survival time, dose: 0.25 mg/kg/injection, schedule: Q01DX009 (ip), vehicle: saline with Tween-80) 95 % of control; (endpoint: median survival time, dose: 0.5 mg/kg/injection, schedule: Q01DX009 (ip), vehicle: saline with Tween-80) 94 % of control; (endpoint: median survival time, dose: 1.0 mg/kg/injection, schedule: Q01DX009 (ip), vehicle: saline with Tween-80) 94 % of control.

Consider `O=C(O)C(C(=O)O)C1Cc2cccc3cccc1c23` (configuration not stated), for which the T/C under setting [6] is 94 % of control.

On to `CC(O)C[As](=O)(O)c1ccc(Cl)cc1` (configuration not stated), for which the T/C was 95 % of control (endpoint: mean survival time, dose: 6.25 mg/kg/injection, schedule: Q04DX003 (ip), vehicle: saline with Tween-80); 107 % of control (endpoint: mean survival time, dose: 12.5 mg/kg/injection, schedule: Q04DX003 (ip), vehicle: saline with Tween-80); 107 % of control under setting [7].

With `Nc1nc2c(c(=O)[nH]1)N(CCCCCO)C(CNc1ccc(C(=O)NC(CCC(=O)O)C(=O)O)cc1)CN2` (configuration not stated), the T/C was 97 % of control under setting [8], 103 % of control under setting [9] and 97 % of control under setting [10].

With `Cc1cc(C)c(CC=O)c(C)c1`, the T/C by setting is: (endpoint: median survival time, dose: 25.0 mg/kg/injection, schedule: Q04DX002 (ip), vehicle: saline with Tween-80) 100 % of control; (endpoint: median survival time, dose: 50.0 mg/kg/injection, schedule: Q04DX002 (ip), vehicle: saline with Tween-80) 100 % of control; (endpoint: median survival time, dose: 100.0 mg/kg/injection, schedule: Q04DX002 (ip), vehicle: saline with Tween-80) 100 % of control; (endpoint: median survival time, dose: 200.0 mg/kg/injection, schedule: Q04DX002 (ip), vehicle: saline with Tween-80) 100 % of control.

In the case of `CCC(O)(CC)c1ccc2ncccc2c1`, the T/C was 98 % of control (endpoint: mean survival time, dose: 75.0 mg/kg/injection, schedule: Q04DX003 (ip), vehicle: saline); 97 % of control (endpoint: mean survival time, dose: 150.0 mg/kg/injection, schedule: Q04DX003 (ip), vehicle: saline); 98 % of control (endpoint: mean survival time, dose: 300.0 mg/kg/injection, schedule: Q04DX003 (ip), vehicle: saline).

As to `C(=Nc1cccc2ccccc12)c1ccc2c(c1)OCO2`, the T/C (endpoint: mean survival time, dose: 100.0 mg/kg/injection, schedule: Q01DX001 (ip), vehicle: Klucel (hydroxypropylcellulose) (HPC)) is 98 % of control; the T/C (endpoint: mean survival time, dose: 100.0 mg/kg/injection, schedule: Q01DX009 (ip), vehicle: Klucel (hydroxypropylcellulose) (HPC)) was 91 % of control; the T/C (endpoint: mean survival time, dose: 200.0 mg/kg/injection, schedule: Q01DX001 (ip), vehicle: Klucel (hydroxypropylcellulose) (HPC)) was 93 % of control; the T/C (endpoint: mean survival time, dose: 200.0 mg/kg/injection, schedule: Q01DX009 (ip), vehicle: Klucel (hydroxypropylcellulose) (HPC)) was 96 % of control; the T/C (endpoint: mean survival time, dose: 400.0 mg/kg/injection, schedule: Q01DX001 (ip), vehicle: Klucel (hydroxypropylcellulose) (HPC)) was 96 % of control; the T/C (endpoint: mean survival time, dose: 400.0 mg/kg/injection, schedule: Q01DX009 (ip), vehicle: Klucel (hydroxypropylcellulose) (HPC)) was 96 % of control.

Consider `C=C(C)C12CC(C)C34OC(CCCCCCCCCCC)(OC1C3C1OC1(CO)C(O)C1(O)C(=O)C(C)=CC14C)O2` (configuration not stated), for which the T/C is 94 % of control (endpoint: mean survival time, dose: 0.05 mg/kg/injection, schedule: Q01DX009 (ip), vehicle: other); 89 % of control (endpoint: mean survival time, dose: 0.1 mg/kg/injection, schedule: Q01DX009 (ip), vehicle: other); 89 % of control (endpoint: mean survival time, dose: 0.2 mg/kg/injection, schedule: Q01DX009 (ip), vehicle: other); 89 % of control (endpoint: mean survival time, dose: 0.4 mg/kg/injection, schedule: Q01DX009 (ip), vehicle: other).

In the case of `COC(=O)c1cc2cc3c(c(O)c2c(=O)o1)OC1(Cc2c(O)c4c(c(O)c2O1)C(=O)C(OC)CC4=O)CC3O` (configuration not stated), the T/C (endpoint: mean survival time, dose: 12.5 mg/kg/injection, schedule: Q01DX009 (ip), vehicle: saline with Tween-80) was 92 % of control; the T/C under setting [4] is 94 % of control; the T/C under setting [6] is 91 % of control; the T/C under setting [2] was 101 % of control; the T/C (endpoint: mean survival time, dose: 200.0 mg/kg/injection, schedule: Q01DX001 (ip), vehicle: saline with Tween-80) was 96 % of control.

Turning to `O=C(O)CCC(=O)CC1CCCCC1`, the T/C is 98 % of control under setting [5], 105 % of control under setting [2] and 98 % of control under setting [3].

Take `O=C(O)CC1OCC=C2C[N+]3([O-])CCC45c6ccccc6NC4C1C2CC53` (configuration not stated): the T/C by setting is: (endpoint: mean survival time, dose: 75.0 mg/kg/injection, schedule: Q01DX001 (ip), vehicle: other) 100 % of control; (endpoint: mean survival time, dose: 150.0 mg/kg/injection, schedule: Q01DX001 (ip), vehicle: other) 98 % of control.

As for `COC(=O)CC(CC(=O)OC)N1CC=CC1`, the T/C under setting [8] is 100 % of control, the T/C under setting [9] is 98 % of control and the T/C under setting [10] is 108 % of control.

As to `O=C(Nc1ccccc1CCl)Nc1ccccc1CCl`, the T/C (endpoint: median survival time, dose: 50.0 mg/kg/injection, schedule: Q01DX005 (ip), vehicle: saline with Tween-80) was 111 % of control; the T/C (endpoint: median survival time, dose: 100.0 mg/kg/injection, schedule: Q01DX005 (ip), vehicle: saline with Tween-80) was 117 % of control; the T/C (endpoint: median survival time, dose: 200.0 mg/kg/injection, schedule: Q01DX005 (ip), vehicle: saline with Tween-80) was 115 % of control; the T/C (endpoint: median survival time, dose: 400.0 mg/kg/injection, schedule: Q01DX005 (ip), vehicle: saline with Tween-80) is 121 % of control.

Regarding `CCCNCC(=O)O[C@]1(CC)C(=O)OCc2c1cc1n(c2=O)Cc2cc3ccccc3nc2-1`, the T/C (endpoint: median survival time, dose: 7.5 mg/kg/injection, schedule: Q04DX002 (ip), vehicle: saline) was 112 % of control; the T/C (endpoint: median survival time, dose: 30.0 mg/kg/injection, schedule: Q04DX002 (ip), vehicle: saline) is 159 % of control and 204 % of control; the T/C (endpoint: median survival time, dose: 60.0 mg/kg/injection, schedule: Q04DX002 (ip), vehicle: saline) is 116 % of control and 106 % of control.

`C=Cc1nnnn1C12CC3CC(CC(C3)C1)C2`: the T/C is, setting by setting: (endpoint: mean survival time, dose: 50.0 mg/kg/injection, schedule: Q01DX001 (ip), vehicle: saline with Tween-80) 106 % of control; under setting [6], 112 % of control.

Turning to `C1=C(Nc2ccccc2)C(=Nc2ccccc2)C=C(Nc2ccccc2)C1=Nc1ccccc1`, the T/C under setting [7] is 96 % of control; the T/C (endpoint: mean survival time, dose: 50.0 mg/kg/injection, schedule: Q04DX003 (ip), vehicle: saline with Tween-80) is 96 % of control; the T/C under setting [1] is 98 % of control.

Take `c1ccc(C2CO2)cc1` (configuration not stated): the T/C is 102 % of control (endpoint: mean survival time, dose: 150.0 mg/kg/injection, schedule: Q04DX003 (ip), vehicle: Klucel (hydroxypropylcellulose) (HPC)) and 102 % of control (endpoint: mean survival time, dose: 225.0 mg/kg/injection, schedule: Q04DX003 (ip), vehicle: Klucel (hydroxypropylcellulose) (HPC)).
